Laboratory results published in patent US20120122843A1, “Compounds and Their Use for Treatment of Amyloid Beta-Related Diseases” (ASTRAZENECA AB, priority 2010, published 2012).

System: Aβ42
Test: Aβ42 release from HEK cells stably expressing APPswe (MSD electrochemiluminescence)
Type: cell-based, Human
Settings: 4-6 h incubation with test compound, Aβ42 secreted to cell medium
Protocol: The level of activity of the compounds on Aβ formation was tested using the following method:
Compounds were diluted in 100% DMSO and stored at […] prior to use. Human Embryonic Kidney (HEK) cell line stably expressing APP with the Swedish mutation (APPswe) were cultured using Dulbecco's Modified Eagles medium (DMEM) supplied with […] glucose, Na-pyruvate and GlutaMAX with 10% FBS, 100 U/ml penicillin-streptomycin (PEST) respectively, 1× non-essential amino acids (NEAA), […] Hepes, 100 μg/ml Zeocine. Cells at about 80% confluence were washed with PBS, detached from culture flasks using 1× Trypsin/EDTA diluted in PBS, re-suspended in cell media and plated in 384-well poly-d-lysine coated cell culture plates at about 10000-15000 cells/well, in 25 μL cell media. Optionally, cryo-preserved cells (frozen and stored at −140° C. in 90% cell media and 10% DMSO) were thawed, washed and plated as above. Next the cells were incubated for 15-24 h at 37° C. and 5% CO2, after which cell medium was changed. Fresh medium containing test compound diluted ×200 from prepared compound plate was added to the cells before further incubation for 4-6 hours at 37° C. and 5% CO2. After incubation with test compound the amount of Aβ peptides, including Aβ42, Aβ40, Aβ39, Aβ38 and Aβ37, as well as total Aβ levels, secreted to cell medium was analyzed using the electrochemiluminescence assay technology from Meso Scale Discovery (MSD), in combination with specific antibodies raised against the different Aβ peptides. Aβ42, Aβ40 and Aβ38 antibodies were purchased from MSD and Aβ37 and Aβ39 were made in house. Total Aβ was measured using a combination of 6E10 and 4G8 anti Aβ antibodies from MSD. Potential cytotoxic effects of the compounds were usually assayed by measuring the ATP content (ViaLight) from cell lysate.

[1] = Homo sapiens, HEK293, HEK cells expressing APPswe

COc1nc(Nc2ccc3c(n2)OC(CC(F)(F)F)CN(C)C3)ccc1-c1ccc(=O)n(C)c1 (single isomer, unassigned) [Example 43, 5-(2-Methoxy-6-(4-methyl-2-(2,2,2-trifluoroethyl)-2,3,4,5-tetrahydropyrido[3,2-f][1,4]oxazepin-8-ylamino)pyridin-3-yl)-1-methylpyridin-2(1H)-one]
IC50 [1]: 493 nM

COc1nc(Nc2ccc3c(n2)OC(CC(F)(F)F)CN(C)C3)ccc1-c1cnc(C)o1 (single isomer, unassigned) [Example 64, N-[6-Methoxy-5-(2-methyloxazol-5-yl)-2-pyridyl]-4-methyl-2-(2,2,2-trifluoroethyl)-3,5-dihydro-2H-pyrido[3,2-f][1,4]oxazepin-8-amine]
IC50 (HEK cells expressing APPswe): 4 nM

COc1nc(Nc2ccc3c(n2)OC(C2CC2)CN(C)C3C)ccc1-c1cnn(C)c1 (single isomer, unassigned) [Example 19, 2-Cyclopropyl-N-(6-methoxy-5-(1-methyl-1H-pyrazol-4-yl)pyridin-2-yl)-4,5-dimethyl-2,3,4,5-tetrahydropyrido[3,2-f][1,4]oxazepin-8-amine]
IC50 (HEK cells expressing APPswe): 124 nM

COc1nc(Nc2ccc3c(n2)OC(c2ncccc2C)CN(C)C3)ccc1-c1cnn(C)c1 (stereo not shown) [Example 16, N-(6-Methoxy-5-(1-methyl-1H-pyrazol-4-yl)pyridin-2-yl)-4-methyl-2-(3-methylpyridin-2-yl)-2,3,4,5-tetrahydropyrido[3,2-f][1,4]oxazepin-8-amine]
IC50 [1]: 305 nM

COc1nc(Nc2ccc3c(n2)O[C@H](c2ccccc2)CN(C)C3)ccc1-c1ccc(=O)n(C)c1 [Example 45, (R)-5-(2-Methoxy-6-(4-methyl-2-phenyl-2,3,4,5-tetrahydropyrido[3,2-f][1,4]oxazepin-8-ylamino)pyridin-3-yl)-1-methylpyridin-2(1H)-one]
IC50 [1]: 38 nM

COc1nc(Nc2cc(C)c3c(n2)OC(c2nc(C)cs2)CN(C)C3)ccc1-c1cnn(C)c1 (single isomer, unassigned) [Example 21, N-(6-Methoxy-5-(1-methyl-1H-pyrazol-4-yl)pyridin-2-yl)-4,6-dimethyl-2-(4-methylthiazol-2-yl)-2,3,4,5-tetrahydropyrido[3,2-f][1,4]oxazepin-8-amine]
IC50 (HEK cells expressing APPswe): 179 nM

COc1nc(Nc2ccc3c(n2)OC(c2nc(C)cs2)CN(C)C3)ccc1-c1cnn(C)c1 (single isomer, unassigned; (+)) [Example 10, (+)-N-(6-Methoxy-5-(1-methyl-1H-pyrazol-4-yl)pyridin-2-yl)-4-methyl-2-(4-methylthiazol-2-yl)-2,3,4,5-tetrahydropyrido[3,2-f][1,4]oxazepin-8-amine]
IC50 (HEK cells expressing APPswe): 226 nM

CN1Cc2ccc(Nc3ccc(-c4cnn(C)c4)cn3)nc2O[C@H](c2ccccc2)C1 [Example 15, (R)-4-Methyl-N-(5-(1-methyl-1H-pyrazol-4-yl)pyridin-2-yl)-2-phenyl-2,3,4,5-tetrahydropyrido[3,2-f][1,4]oxazepin-8-amine]
IC50 [1]: 137 nM

COc1nc(Nc2ccc3c(n2)OC(CC(F)(F)F)CN(C)C3)ccc1-c1cnc(C)o1 (single isomer, unassigned) [Example 63, N-[6-Methoxy-5-(2-methyloxazol-5-yl)-2-pyridyl]-4-methyl-2-(2,2,2-trifluoroethyl)-3,5-dihydro-2H-pyrido[3,2-f][1,4]oxazepin-8-amine]
IC50 [1]: 3 nM

COc1nc(Nc2ccc3c(n2)OC(CC(F)(F)F)CN(C)C3)ccc1-c1ccc(=O)n(C)c1 (single isomer, unassigned) [Example 44, 5-(2-Methoxy-6-(4-methyl-2-(2,2,2-trifluoroethyl)-2,3,4,5-tetrahydropyrido[3,2-f][1,4]oxazepin-8-ylamino)pyridin-3-yl)-1-methylpyridin-2(1H)-one]
IC50 (HEK cells expressing APPswe): 374 nM
